The test system of one data set is Ehrlich ascites tumor. Put plainly: Antitumor activity, transplantable Ehrlich ascites tumor (intraperitoneal). In kind it is in vivo. The settings on record: mice, reference medication, optimal therapeutic dose of 25 ml/kg. On the procedure:
(§1) The antitumor activity of the medication of the present invention was studied in mice and rats with transplantable tumors of Sarcoma 37, 45, and 180, and Ehrlich ascites tumor.
(§2) In the study of antitimor properties of the medication of the present invention, the medication was used in doses of 20 and 40 ml/kg, and 10 and 30 ml/kg in the tests on mice and rats, respectively. The general toxic action which the medication had on the organism of the tested animals was estimated by their outer appearance and behavior during the experiment, as well as by the Growth Ratio (GR) expressed in percent.
The numerical data obtained was processed statistically by Student-Fisher's method.

Another data set deals with Sarcoma 180. Put plainly: Antitumor activity, transplantable Sarcoma 180 (subcutaneous). The following applies: mice, reference medication, identical experimental conditions. It counts as in vivo. On the procedure:
as §1
(§3) Necrosis-free pieces of tumoral tissue (a peripheral part of a tumoral node) cut with scissors to form a homogeneous mass served as transplantants for solid models (Sarcomas 37, 45 and 180). A sterile physiological solution in the proportion of 1:3-1:4 was added to the tumor and the resulting suspension was introduced with a syringe subcutaneously to the animals. The transplantation was conducted in sterile box conditions using 12-14 days' tumor as a donor. The transplantation of sarcomas 37 and 180 was performed by means of subcutaneous introduction of 0.2-0.3 ml of the 20% tumoral suspension in a physiological solution to the axillary crease of each mouse. For the transplantation of Sarcoma 45, by 0.4-0.5 ml of suspension of tumoral cells was introduced subcutaneously (to the lateral area) of each rat. On the 4th-5th days after inoculation, when the transplanted tumor is usually pea-size, the animals were divided into test and control groups each having 8 mice and 10 rats. […] A day after the last injection of the medication, the animals were killed with ether, weighed, and the weight of tumors was measured separately. […]

For the next data set, the system named is Sarcoma 37. Briefly: Antitumor activity, transplantable Sarcoma 37 (subcutaneous). It counts as in vivo. The settings on record: mice, reference medication, identical experimental conditions. How it is done: as §1, §3
The next data set has as its system Sarcoma 45. Briefly: Antitumor activity, transplantable Sarcoma 45 (subcutaneous). The following applies: rats, reference medication, identical experimental conditions. In kind it is in vivo. How it is done:
as §1, §3

For data set [1] the following is noted: in vivo. How it is done:
as §2

One compound from patent US20070224291A1, “Cancer treatment” (priority 2005, published 2007) can be followed below.

In the case of `O=c1[nH]cc(F)c(=O)[nH]1` [5-fluorouracil], the “antitumor effect (inhibition of ascit accumulation)” value with Ehrlich ascites tumor is 70%. For the same compound, the “inhibition of tumor growth” value was determined as 45% in the data set on Sarcoma 180 and 32% in the data set on Sarcoma 45. Besides, the “therapeutic effect (inhibition of tumor growth)” value in the data set with Sarcoma 37 amounted to 70%. Also, the “GR, span over all tests” value in data set [1] is −7.3 to −11.
